Assay results as given in US20260098058A1, “COMPOUND - DIAGNOSTIC MARKER FOR OVARIAN CANCER, METHOD FOR DETECTING ENZYMATIC ACTIVITY, METHOD FOR DIAGNOSIS OF OVARIAN CANCER, KIT COMPRISING THE COMPOUND, USES OF THE COMPOUND AND METHOD FOR THE TREATMENT OF OVARIAN CANCER” (Urteste S.A., priority 2022, published 2026).
Where “and” joins values, the source holds several entries; their conditions need not be identical. Equal values may be shown once. Entries after “also recorded” stand apart in the source; their conditions may differ. Starred links: 1 amine or outer side, 2 acyl side, 3 side chain; linkers in the order of their positions; H or OH if unused. Non-standard residues stand in square brackets, D forms with d. No end group written: not given here. Benzoyl(5-NH,2-NO2) = O=C(c1cc(N[*:1])ccc1[N+](=O)[O-])[*:2]; 2Abz = Nc1ccccc1C(=O)O

Key:
[1] = system: enzyme(s) in the studied material; assay: Dependence of substrate hydrolysis on reaction pH; type: biochemical; conditions: FIG. 4
Description: Furthermore, measurements concerning the dependence of the proteolytic activity of the representative compound according to the invention on the reaction pH were performed.

[2] = system: enzymatic (proteolytic) activity in urine from a subject suffering from ovarian cancer; assay: Absorbance measurement of substrate hydrolysis in urine from subjects with ovarian cancer; type: biochemical, human; conditions: for Results of absorbance analysis (rate of hydrolysis of the substrate): 405 nm, 37° C., 60 minutes, pH 8.0, triplicate
Description: (§1) The activity of the novel compounds according to the invention was studied in a group of 20 subjects diagnosed with ovarian cancer using the representative compound according to the invention. […] The remaining compounds according to the invention are characterized by the analogous mechanism of action. For this purpose, the representative compound according to the invention, ABZ^1-Asp^2-Thr^3-Phe^4-Ile^5-NH2, was dissolved in dimethyl sulfoxide (at a concentration of 0.5 mg/mL) and then […] of the solution was mixed with […] of a buffer (200 mM Tris-HCl, pH 8.0) and […] of urine from a subject suffering from ovarian cancer. The measurement was performed on a 96-well plate designed for measuring absorbance and each sample was analysed in triplicate at the temperature of 37° C. The duration of the measurement was 60 minutes. During the measurement, the wavelength characteristic for the chromophore (ANB-NH2) being released was monitored at the wavelength 405 nm (range 380-430 nm).

[3] = system: urine samples from subjects with ovarian cancer or another neoplastic disease; assay: Selectivity of substrate cleavage by cancer type (urine samples); type: biochemical, human; conditions: intestine, kidney, prostate, pancreas, stomach, lung, uterine body and liver cancer samples (FIG. 3)
Text: Arabic numerals indicate the numbers of given cancer types. The samples tested for each type of cancer were derived from 20 different patients for each of the tested cancers. The results are mean values for given cancer types.
as §1
Furthermore, the dependence of the cleavage selectivity of the substrate, i.e. the compound according to the invention, on the cancer type being examined, was studied. […]

[4] = system: urine taken from a person diagnosed with ovarian cancer; assay: RP HPLC analysis of substrate cleavage in urine; type: biochemical, human; conditions: randomly selected urine sample from a person diagnosed with ovarian cancer (FIG. 1)
[5] = system: urine samples taken from healthy persons (without a cancer diagnosis); assay: Absorbance measurement of substrate hydrolysis in urine from healthy subjects; type: biochemical, human; conditions: for Results of absorbance analysis (rate of hydrolysis of the substrate): 405 nm, 37° C., 60 minutes, pH 8.0, triplicate

dependence of the hydrolysis level of the substrate on pH [1]: maximum activity at alkaline pH
Substance: ABZ-Asp-Thr-Phe-Ile-ANB-NH2 ([2Abz]DTFI-{Benzoyl(5-NH,2-NO2)-NH2})
colour intensity of the solution (absorbance in time) ([2]; all urine samples from persons diagnosed with ovarian cancer (samples 1-20)): increased with time | efficiency of cleavage of the substrate between samples ([2]; samples 3 and 17 compared with samples 1 or 13): less efficiently | Results of absorbance analysis (rate of hydrolysis of the substrate) ([2]; urine sample 1, ovarian cancer): 0.0066 and 0.006 and 0.0065 | Results of absorbance analysis (rate of hydrolysis of the substrate) ([2]; urine sample 2, ovarian cancer): 0.052 and 0.042 and 0.051 | Results of absorbance analysis (rate of hydrolysis of the substrate) ([2]; urine sample 3, ovarian cancer): 0.0087 and 0.0088 and 0.0086 | Results of absorbance analysis (rate of hydrolysis of the substrate) ([2]; urine sample 4, ovarian cancer): 0.0069 and 0.0051 and 0.0067 | Results of absorbance analysis (rate of hydrolysis of the substrate) ([2]; urine sample 5, ovarian cancer): 0.044 and 0.038 and 0.042 | Results of absorbance analysis (rate of hydrolysis of the substrate) ([2]; urine sample 6, ovarian cancer): 0.037 and 0.022 and 0.028 | Results of absorbance analysis (rate of hydrolysis of the substrate) ([2]; urine sample 8, ovarian cancer): 0.014 and 0.022 and 0.015 | Results of absorbance analysis (rate of hydrolysis of the substrate) ([2]; urine sample 9, ovarian cancer): 0.0088 and 0.0101 and 0.0092 | Results of absorbance analysis (rate of hydrolysis of the substrate) ([2]; urine sample 10, ovarian cancer): 0.009 and 0.0093 and 0.0085 | Results of absorbance analysis (rate of hydrolysis of the substrate) ([2]; urine sample 11, ovarian cancer): 0.0123 and 0.0112 and 0.0145 | Results of absorbance analysis (rate of hydrolysis of the substrate) ([2]; urine sample 12, ovarian cancer): 0.0216 and 0.021 and 0.0199 | Results of absorbance analysis (rate of hydrolysis of the substrate) ([2]; urine sample 13, ovarian cancer): 0.0045 and 0.0052 and 0.0048 | Results of absorbance analysis (rate of hydrolysis of the substrate) ([2]; urine sample 14, ovarian cancer): 0.005 and 0.0061 and 0.0058 | Results of absorbance analysis (rate of hydrolysis of the substrate) ([2]; urine sample 15, ovarian cancer): 0.0017 and 0.0015 and 0.0021 | Results of absorbance analysis (rate of hydrolysis of the substrate) ([2]; urine sample 16, ovarian cancer): 0.0079 and 0.0084 and 0.0072 | Results of absorbance analysis (rate of hydrolysis of the substrate) ([2]; urine sample 18, ovarian cancer): 0.0073 and 0.0068 and 0.0075 | Results of absorbance analysis (rate of hydrolysis of the substrate) ([2]; urine sample 19, ovarian cancer): 0.055 and 0.051 and 0.048 | Results of absorbance analysis (rate of hydrolysis of the substrate) ([2]; urine sample 20, ovarian cancer): 0.0077 and 0.0075 and 0.0081 | cleavage / increase in absorbance with samples of other cancers [3]: is not subject to cleavage | cleavage products by RP HPLC [4]: cleaves into the peptide fragment ABZ-Asp-Thr-Phe-Ile-OH and the chromophore group of the compound (ANB-NH2) | increase in absorbance within the diagnostic range ([5]; 20 urine samples from healthy subjects (Z21 to Z40)): no increase in absorbance; also recorded: does not lead to an increase in absorbance | Results of absorbance analysis (rate of hydrolysis of the substrate) ([5]; urine sample Z21, healthy subject): 0.000000 | Results of absorbance analysis (rate of hydrolysis of the substrate) ([5]; urine sample Z22, healthy subject): 0.000000 | Results of absorbance analysis (rate of hydrolysis of the substrate) ([5]; urine sample Z23, healthy subject): 0.000000 | Results of absorbance analysis (rate of hydrolysis of the substrate) ([5]; urine sample Z24, healthy subject): 0.000000 | Results of absorbance analysis (rate of hydrolysis of the substrate) ([5]; urine sample Z25, healthy subject): 0.000000 | Results of absorbance analysis (rate of hydrolysis of the substrate) ([5]; urine sample Z26, healthy subject): 0.000000 | Results of absorbance analysis (rate of hydrolysis of the substrate) ([5]; urine sample Z27, healthy subject): 0.000000 | Results of absorbance analysis (rate of hydrolysis of the substrate) ([5]; urine sample Z28, healthy subject): 0.000000 | Results of absorbance analysis (rate of hydrolysis of the substrate) ([5]; urine sample Z29, healthy subject): 0.000000 | Results of absorbance analysis (rate of hydrolysis of the substrate) ([5]; urine sample Z30, healthy subject): 0.000000 | Results of absorbance analysis (rate of hydrolysis of the substrate) ([5]; urine sample Z31, healthy subject): 0.000000 | Results of absorbance analysis (rate of hydrolysis of the substrate) ([5]; urine sample Z32, healthy subject): 0.000000 | Results of absorbance analysis (rate of hydrolysis of the substrate) ([5]; urine sample Z33, healthy subject): 0.000000 | Results of absorbance analysis (rate of hydrolysis of the substrate) ([5]; urine sample Z34, healthy subject): 0.000000 | Results of absorbance analysis (rate of hydrolysis of the substrate) ([5]; urine sample Z35, healthy subject): 0.000000 | Results of absorbance analysis (rate of hydrolysis of the substrate) ([5]; urine sample Z36, healthy subject): 0.000000 | Results of absorbance analysis (rate of hydrolysis of the substrate) ([5]; urine sample Z37, healthy subject): 0.000000 | Results of absorbance analysis (rate of hydrolysis of the substrate) ([5]; urine sample Z38, healthy subject): 0.000000 | Results of absorbance analysis (rate of hydrolysis of the substrate) ([5]; urine sample Z39, healthy subject): 0.000000 | Results of absorbance analysis (rate of hydrolysis of the substrate) ([5]; urine sample Z40, healthy subject): 0.000000
